According to US20240190876A1, “Tricyclic Urea Compounds As JAK2 V617F Inhibitors” (Incyte Corporation, priority 2022, published 2024):

How the values were obtained:
KIT [1] = target: KIT (Homo sapiens, UniProt P10721); assay: KIT Enzymatic Assay; type: biochemical; conditions: HTRF kinase assay, 1 mM ATP
Experimental: (§1) The kinase assays were carried out at room temperature in assay buffer (HEPES 50 mM, pH 7.0, NaN3 0.02%, BSA 0.01%, Orthovanadate 0.1 mM, DTT 1 mM, MgCl2 10 mM) in a final volume of 10 μL. Testing compounds were prepared by serial dilution in DMSO and transferred to the plate wells by ECHO liquid handler (Labcyte) with 0.5% DMSO in the final assay. […]. Reactions were initiated by the addition of 5 μL ATP in assay buffer. The final 10 μL kinase reaction consists of 0.12 nM KIT, 1 mM ATP, 500 nM TK Substrate-biotin and SEB reagent 62.5 nM in assay buffer. […] The plates were then sealed and centrifuged at 1800 rpm for 2 minutes. After 60 minutes incubation at room temperature, the product activity was determined by measuring the fluorescence at 620 nm and 665 nm on Pherastar microplate reader (BMG Labtech). A ratio is calculated (665/620 nm) for each well. Wells with DMSO only were served as the positive controls and wells containing no ATP were used as negative controls. IC50 determination was performed by fitting the curve of percent control activity versus the log of the compound concentration using the GraphPad Prism 7.0 software.

KIT [2] = assay: KIT Enzymatic Assay; type: biochemical; conditions: ratio KIT IC50 / JH2 V617F binding IC50
Experimental: as §1

[3] = tested on: Phospho-STAT5 (Tyr694) in SET-2 cells; assay: STAT5 (Tyr694) Phosphorylation Cell Based Assay; conditions: Homo sapiens, pSTAT5 (Tyr694) HTRF, 2 hours, RPMI with 10% FBS, read-out: SET2 IC50
Experimental: SET-2 cells was purchased from DSMZ (Germany). RPMI1640 medium, Fetal Bovine Serum and 384-white sold flat-bottom small volume plate were purchased from Thermo Fisher Scientific (Waltham, MA). Phospho-STAT5 (Tyr694) HTRF kit was purchased from Perkin Elmer (Waltham, MA).
SET-2 cells were cultured in RPMI media with 20% FBS at 37° C. in humidified incubator supplied with 5% CO2. On the day of assay, the cells were centrifuged to remove the culture media and resuspended with prewarmed RPMI with 10% FBS.
Testing compounds were prepared by serial dilution in DMSO and 50 nL/well test compounds were transferred to the 384 white low volume cell culture plate (Greiner Bio-one) by ECHO liquid handler (Labcyte). The cells were then dispensed with Multidrop (Thermo Fisher, Waltham, MA) at 10 μL/well (7×10^6 cells/mL) with 0.5% DMSO in the final assay. After the treated cells were incubated for 2 hours at 37° C./5% CO2 incubator, 4 μL/well supplemented lysis buffer (100X blocking buffer diluted 25 fold in 4X lysis buffer, Perkin Elmer) were added and incubated at room temperature for 90 min on orbital shaker at 600 rpm. Phospho-STAT5 Cryptate antibody and Phospho-STAT5 d2 antibody (1:1 vol/vol) were premixed and diluted 20 fold with in the detection buffer (Perkin Elmer). 4 μL of the premixed antibody solution were added to each well followed with 24 hours incubation at room temperature on orbital shaker at 600 rpm. The product activity was determined by measuring the fluorescence at 620 nm and 665 nm on Pherastar microplate reader (BMG Labtech). A ratio is calculated (665/620) for each well. Wells with DMSO only served as the positive controls and wells containing high concentration of control compound were used as negative controls. IC50 determination was performed by fitting the curve of percent control activity versus the log of the compound concentration using the GraphPad Prism 7.0 software.

[4] = tested on: pSTAT5 signaling in SET-2 cells in whole blood; assay: pSTAT5 SET-2 Whole Blood MSD Assay; type: cell-based; conditions: Homo sapiens, SET-2 cells with whole blood, 2 hour incubation, read-out: SET2 WB IC50
Experimental: SET-2 cells shipped from ABS, RPMI1640 medium, Fetal Bovine Serum from Gibco, Phospho-STAT5a,b Whole Cell Lysate Kit from Mesoscale, Retronectin (Recombinant Human Fibronectin Fragment) from TaKaRa, 96 well cell culture plate flat bottom from Corning, lysis buffer from Cell Signaling Technology, and sterile PBS from Gibco. Whole Blood from by BioIVT.
SET-2 cells were cultured in RPMI media with 20% FBS at 37° C. humidified incubator supplied with 5% CO2. On the day of the assay, 40 μL per well of diluted retronectin working solution was added to sterile 96-well clear flat bottom tissue culture plates (1:200 dilution of retronectin in sterile PBS) and incubated at 37C for 1 hour. After 1 hour, the retronectin working solution was aspirated and SET-2 cells were seeded at 100,000/well in RPMI+20% FBS. Cells were incubated overnight at 37° C. and 5% CO2.
The next day, the medium was removed and 40 μL of diluted compounds in serum-free RPMI and whole blood was added to the cells for a 2 hour incubation at 37° C. and 5% CO2. The compound starting concentration is 20 μM and 2.5 fold serial diluted down to 0.21 nM. The whole blood and compound mixture was then aspirated off using the BlueCat plate washer and washed 1× with PBS. Cells were lysed by adding 40 μL of 3X complete lysis buffer and shaken at room temperature for 45-60 minutes (complete lysis buffer consists of Cell Signaling Technology lysis buffer diluted to 3X and supplemented with Mesoscale's protease inhibitor, phosphatase I inhibitor, and phosphatase II inhibitor). The pSTAT5 MSD plates were blocked by adding 150 μL of Blocker A solution per well to the MSD plates and incubated at room temperature with shaking at 400 rpm for one hour or longer. After blocking, plates were washed 3X with 300 μL/well of IX Tris Wash Buffer. After lysis, added 25 μL per well of lysed sample was added to MSD plate and incubated with shaking at 4° C. wrapped in foil overnight. The next day, plates were washed again and 25 μL/well of diluted 1X Detection Antibody Solution, wrapped in foil, and incubated at room temperature with shaking at 400 rpm for 1 hour.
Plates were then washed again and lastly, 150 μL/well of 1X Read Buffer T was added to all wells. Plates were analyzed on MSD Discovery within 5 minutes. […] Data analysis was performed in GraphPad Prism using a 4-parameter fit and data was reported as Average ±SD.

Sequence of KIT (Homo sapiens, UniProt P10721) (P10721 26-976, species assumed): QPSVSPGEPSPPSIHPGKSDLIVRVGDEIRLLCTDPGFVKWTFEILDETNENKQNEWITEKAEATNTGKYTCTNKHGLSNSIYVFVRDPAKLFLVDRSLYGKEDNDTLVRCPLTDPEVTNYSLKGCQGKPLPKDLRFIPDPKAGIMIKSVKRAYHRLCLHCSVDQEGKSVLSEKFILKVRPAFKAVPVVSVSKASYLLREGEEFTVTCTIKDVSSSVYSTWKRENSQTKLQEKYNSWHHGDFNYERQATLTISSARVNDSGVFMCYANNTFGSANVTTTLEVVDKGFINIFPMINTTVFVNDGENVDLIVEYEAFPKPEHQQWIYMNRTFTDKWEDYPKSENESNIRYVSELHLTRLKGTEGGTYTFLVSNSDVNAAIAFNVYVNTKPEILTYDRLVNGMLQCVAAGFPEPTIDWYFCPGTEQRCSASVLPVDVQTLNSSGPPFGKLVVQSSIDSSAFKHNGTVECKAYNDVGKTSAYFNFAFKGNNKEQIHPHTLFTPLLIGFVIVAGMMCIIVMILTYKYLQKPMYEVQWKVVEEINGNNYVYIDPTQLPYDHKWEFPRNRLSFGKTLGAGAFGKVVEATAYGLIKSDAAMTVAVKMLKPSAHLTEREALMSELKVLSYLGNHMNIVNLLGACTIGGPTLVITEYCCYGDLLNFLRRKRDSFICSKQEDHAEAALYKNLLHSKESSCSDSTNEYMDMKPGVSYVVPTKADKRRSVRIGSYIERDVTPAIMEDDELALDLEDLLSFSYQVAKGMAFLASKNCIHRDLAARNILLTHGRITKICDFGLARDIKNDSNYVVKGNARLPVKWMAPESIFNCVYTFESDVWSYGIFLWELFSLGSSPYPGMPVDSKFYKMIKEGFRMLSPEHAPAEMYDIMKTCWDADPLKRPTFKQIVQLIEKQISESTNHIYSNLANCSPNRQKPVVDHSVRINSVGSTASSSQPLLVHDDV

Row | Structure (SMILES) | IC50 (KIT [1]) | Selectivity KIT/JH2 V617F (KIT [2]) | IC50 [3] | IC50 [4]
1 | COc1ccc(-c2c(-c3cn(C)nc3OC)[nH]c3ncc4c(c23)n([C@H]2CC[C@@](C)(NC(=O)C3CC3)CC2)c(=O)n4C)cc1 [Example 1, N-((1s,4s)-4-(7-(3-Methoxy-1-methyl-1H-pyrazol-4-yl)-8-(4-methoxyphenyl)-3-methyl-2-oxo-3,6-dihydroimidazo[4,5-d]pyrrolo[2,3-b]pyridin-1(2H)-yl)-1-methylcyclohexyl)cyclopropanecarboxamide] | > 2500 nM | ****** (****** refers to selectivity of >12500-fold) | ≤ 300 nM | 2500 to 5000 nM
2 | [2H]C([2H])([2H])n1cc(-c2[nH]c3ncc4c(c3c2-c2ccc3c(cnn3C([2H])([2H])[2H])c2)n([C@H]2CC[C@@](C)(NC(=O)C3CC3)CC2)c(=O)n4C)c(F)n1 [Example 4, N-((1s,4s)-4-(7-(3-fluoro-1-(methyl-d3)-1H-pyrazol-4-yl)-3-methyl-8-(1-(methyl-d3)-1H-indazol-5-yl)-2-oxo-3,6-dihydroimidazo[4,5-d]pyrrolo[2,3-b]pyridin-1(2H)-yl)-1-methylcyclohexyl)cyclopropanecarboxamide] | 250 to 1250 nM | **** (**** refers to selectivity of >1750-fold to ≤5000-fold) | ≤ 300 nM | ≤ 2500 nM
3 | [2H]C([2H])([2H])n1cc(-c2[nH]c3ncc4c(c3c2-c2ccc(OC)cc2)n([C@H]2CC[C@@](C)(NC(=O)C3CC3)CC2)c(=O)n4C)c(F)n1 [Example 3, N-((1s,4s)-4-(7-(3-fluoro-1-(methyl-d3)-1H-pyrazol-4-yl)-8-(4-methoxyphenyl)-3-methyl-2-oxo-3,6-dihydroimidazo[4,5-d]pyrrolo[2,3-b]pyridin-1(2H)-yl)-1-methylcyclohexyl)cyclopropanecarboxamide] | 250 to 1250 nM | **** (**** refers to selectivity of >1750-fold to ≤5000-fold) | ≤ 300 nM | 2500 to 5000 nM
4 | [2H]C([2H])([2H])n1cc(-c2[nH]c3ncc4c(c3c2-c2ccc(OC)cc2)n([C@H]2CC[C@@](C)(NC(=O)[C@H]3C[C@H]3F)CC2)c(=O)n4C([2H])([2H])[2H])c(F)n1 [Example 6, (1R,2R)-2-Fluoro-N-((1s,4S)-4-(7-(3-fluoro-1-(methyl-d3)-1H-pyrazol-4-yl)-8-(4-methoxyphenyl)-3-(methyl-d3)-2-oxo-3,6-dihydroimidazo[4,5-d]pyrrolo[2,3-b]pyridin-1(2H)-yl)-1-methylcyclohexyl)cyclopropane-1-carboxamide] | 250 to 1250 nM | ***** (***** refers to selectivity of >5000-fold to ≤12500-fold) | ≤ 300 nM | ≤ 2500 nM
5 | [2H]C([2H])([2H])n1ncc2cc(-c3c(-c4cn(CC)nc4F)[nH]c4ncc5c(c34)n([C@H]3CC[C@@](C)(NC(=O)C4CC4)CC3)c(=O)n5C)ccc21 [Example 5, N-((1s,4s)-4-(7-(1-Ethyl-3-fluoro-1H-pyrazol-4-yl)-3-methyl-8-(1-(methyl-d3)-1H-indazol-5-yl)-2-oxo-3,6-dihydroimidazo[4,5-d]pyrrolo[2,3-b]pyridin-1(2H)-yl)-1-methylcyclohexyl)cyclopropanecarboxamide] | 250 to 1250 nM | **** (**** refers to selectivity of >1750-fold to ≤5000-fold) | ≤ 300 nM | ≤ 2500 nM
6 | [2H]C([2H])([2H])n1ncc2cc(-c3c(-c4cn(C)nc4OC)[nH]c4ncc5c(c34)n([C@H]3CC[C@@](C)(NC(=O)C4CC4)CC3)c(=O)n5C)ccc21 [Example 2, N-((1s,4s)-4-(7-(3-Methoxy-1-methyl-1H-pyrazol-4-yl)-3-methyl-8-(1-(methyl-d3)-1H-indazol-5-yl)-2-oxo-3,6-dihydroimidazo[4,5-d]pyrrolo[2,3-b]pyridin-1(2H)-yl)-1-methylcyclohexyl)cyclopropanecarboxamide] | > 2500 nM | ****** (****** refers to selectivity of >12500-fold) | ≤ 300 nM | ≤ 2500 nM
